Reference: ChEMBL document CHEMBL1201861, “Genomics of Drug Sensitity in Cancer screening data, Wellcome Trust Sanger Institute”

Tested on: Calu-6;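 note: growth of human Calu-6 cells, read out by a cell viability assay, IC50 marking inhibition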
Assay: cells
Format: functional, cell-based, Homo sapiens
Settings: Homo sapiens, Calu-6
Description: SANGER: Inhibition of human Calu-6 cell growth in a cell viability assay.

SMILES	IC50
Nc1cccc2c1CN(C1CCC(=O)NC1=O)C2=O (stereo not drawn) [LENALIDOMIDE]	> 5 µM

Tested on: NCI-H2126;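 note: growth inhibition of the cancer cell line, determined with a cell viability readout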
Assay: cells
Format: functional, cell-based, Homo sapiens
Settings: Homo sapiens, NCI-H2126
Description: SANGER: Inhibition of human NCI-H2126 cell growth in a cell viability assay.

SMILES	IC50
Nc1cccc2c1CN(C1CCC(=O)NC1=O)C2=O (stereo not drawn) [LENALIDOMIDE]	> 5 µM

Tested on: AM-38;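 note: growth inhibition of AM-38 cells of human origin, read out by a cell viability assay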
Assay: cells
Format: functional, cell-based, Homo sapiens
Settings: Homo sapiens, AM-38
Description: SANGER: Inhibition of human AM-38 cell growth in a cell viability assay.

SMILES	IC50
Nc1cccc2c1CN(C1CCC(=O)NC1=O)C2=O (stereo not drawn) [LENALIDOMIDE]	> 5 µM

Tested on: EW-1;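 note: growth inhibition of the human EW-1 cell line, read out by a cell viability assay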
Assay: cells
Format: functional, cell-based, Homo sapiens
Settings: Homo sapiens, EW-1
Description: SANGER: Inhibition of human EW-1 cell growth in a cell viability assay.

SMILES	IC50
Nc1cccc2c1CN(C1CCC(=O)NC1=O)C2=O (stereo not drawn) [LENALIDOMIDE]	> 5 µM

Tested on: NCI-H226;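 note: cell viability read-out used to gauge growth inhibition of the cells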
Assay: cells
Format: functional, cell-based, Homo sapiens
Settings: Homo sapiens, NCI-H226
Description: SANGER: Inhibition of human NCI-H226 cell growth in a cell viability assay.

SMILES	IC50
Nc1cccc2c1CN(C1CCC(=O)NC1=O)C2=O (stereo not drawn) [LENALIDOMIDE]	> 5 µM

Tested on: SK-LMS-1;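 note: growth inhibition of human SK-LMS-1 cells, read out with a cell viability assay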
Assay: cells
Format: functional, cell-based, Homo sapiens
Settings: Homo sapiens, SK-LMS-1
Description: SANGER: Inhibition of human SK-LMS-1 cell growth in a cell viability assay.

SMILES	IC50
Nc1cccc2c1CN(C1CCC(=O)NC1=O)C2=O (stereo not drawn) [LENALIDOMIDE]	> 5 µM

Tested on: U-87 MG;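 note: growth inhibition of the cells measured with a viability assay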
Assay: cells
Format: functional, cell-based, Homo sapiens, U-87MG ATCC
Settings: Homo sapiens, U-87 MG
Description: SANGER: Inhibition of human U-87-MG cell growth in a cell viability assay.

SMILES	IC50
Nc1cccc2c1CN(C1CCC(=O)NC1=O)C2=O (stereo not drawn) [LENALIDOMIDE]	> 5 µM

Tested on: A498;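 note: growth inhibition of human A498 cells, read out with a cell viability assay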
Assay: cells
Format: functional, cell-based, Homo sapiens
Settings: Homo sapiens, A498
Description: SANGER: Inhibition of human A498 cell growth in a cell viability assay.

SMILES	IC50
Nc1cccc2c1CN(C1CCC(=O)NC1=O)C2=O (stereo not drawn) [LENALIDOMIDE]	> 5 µM

Tested on: NB5;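 note: growth inhibition of NB5 cells, read out as cell viability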
Assay: cells
Format: functional, cell-based, Homo sapiens
Settings: Homo sapiens, NB5
Description: SANGER: Inhibition of human NB5 cell growth in a cell viability assay.

SMILES	IC50
Nc1cccc2c1CN(C1CCC(=O)NC1=O)C2=O (stereo not drawn) [LENALIDOMIDE]	> 5 µM

Tested on: SK-MEL-2;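 note: growth inhibition of human SK-MEL-2 cells measured with a cell viability assay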
Assay: cells
Format: functional, cell-based, Homo sapiens
Settings: Homo sapiens, SK-MEL-2
Description: SANGER: Inhibition of human SK-MEL-2 cell growth in a cell viability assay.

SMILES	IC50
Nc1cccc2c1CN(C1CCC(=O)NC1=O)C2=O (stereo not drawn) [LENALIDOMIDE]	> 5 µM

Tested on: TE-9;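 note: cell growth inhibition, measured with a cell viability readout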
Assay: cells
Format: functional, cell-based, Homo sapiens
Settings: Homo sapiens, TE-9
Description: SANGER: Inhibition of human TE-9 cell growth in a cell viability assay.

SMILES	IC50
Nc1cccc2c1CN(C1CCC(=O)NC1=O)C2=O (stereo not drawn) [LENALIDOMIDE]	> 5 µM

Tested on: LNCaP-Clone-FGC
Assay: cells
Format: functional, cell-based, Homo sapiens
Settings: Homo sapiens, LNCaP-Clone-FGC
Description: SANGER: Inhibition of human LNCaP-Clone-FGC cell growth in a cell viability assay.

SMILES	IC50
Nc1cccc2c1CN(C1CCC(=O)NC1=O)C2=O (stereo not drawn) [LENALIDOMIDE]	> 5 µM

Tested on: ACN;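 note: growth inhibition of the human ACN cell line, read out via cell viability testing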
Assay: cells
Format: functional, cell-based, Homo sapiens
Settings: Homo sapiens, ACN
Description: SANGER: Inhibition of human ACN cell growth in a cell viability assay.

SMILES	IC50
Nc1cccc2c1CN(C1CCC(=O)NC1=O)C2=O (stereo not drawn) [LENALIDOMIDE]	> 5 µM

Tested on: NCI-H1092;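 note: cell growth inhibition measured with a cell viability assay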
Assay: cells
Format: functional, cell-based, Homo sapiens
Settings: Homo sapiens, NCI-H1092
Description: SANGER: Inhibition of human NCI-H1092 cell growth in a cell viability assay.

SMILES	IC50
Nc1cccc2c1CN(C1CCC(=O)NC1=O)C2=O (stereo not drawn) [LENALIDOMIDE]	> 5 µM

Tested on: UACC-257
Assay: cells
Format: functional, cell-based, Homo sapiens
Settings: Homo sapiens, UACC-257
Description: SANGER: Inhibition of human UACC-257 cell growth in a cell viability assay.

SMILES	IC50
Nc1cccc2c1CN(C1CCC(=O)NC1=O)C2=O (stereo not drawn) [LENALIDOMIDE]	> 5 µM

Tested on: C8166;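 note: growth inhibition of human C8166 cells measured by a cell viability assay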
Assay: cells
Format: functional, cell-based, Homo sapiens
Settings: Homo sapiens, C8166
Description: SANGER: Inhibition of human C8166 cell growth in a cell viability assay.

SMILES	IC50
Nc1cccc2c1CN(C1CCC(=O)NC1=O)C2=O (stereo not drawn) [LENALIDOMIDE]	> 5 µM

Tested on: D-263MG
Assay: cells
Format: functional, cell-based, Homo sapiens
Settings: Homo sapiens, D-263MG
Description: SANGER: Inhibition of human D-263MG cell growth in a cell viability assay.

SMILES	IC50
Nc1cccc2c1CN(C1CCC(=O)NC1=O)C2=O (stereo not drawn) [LENALIDOMIDE]	> 5 µM

Tested on: LC-2-ad;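 note: growth inhibition of human LC-2-ad cells, read out with a cell viability assay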
Assay: cells
Format: functional, cell-based, Homo sapiens
Settings: Homo sapiens, LC-2-ad
Description: SANGER: Inhibition of human LC-2-ad cell growth in a cell viability assay.

SMILES	IC50
Nc1cccc2c1CN(C1CCC(=O)NC1=O)C2=O (stereo not drawn) [LENALIDOMIDE]	> 5 µM

Tested on: SK-PN-DW;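 note: growth inhibition measured with a viability assay on these cells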
Assay: cells
Format: functional, cell-based, Homo sapiens
Settings: Homo sapiens, SK-PN-DW
Description: SANGER: Inhibition of human SK-PN-DW cell growth in a cell viability assay.

SMILES	IC50
Nc1cccc2c1CN(C1CCC(=O)NC1=O)C2=O (stereo not drawn) [LENALIDOMIDE]	> 5 µM

Tested on: DB
Assay: cells
Format: functional, cell-based, Homo sapiens
Settings: Homo sapiens, DB
Description: SANGER: Inhibition of human DB cell growth in a cell viability assay.

SMILES	IC50
Nc1cccc2c1CN(C1CCC(=O)NC1=O)C2=O (stereo not drawn) [LENALIDOMIDE]	> 5 µM

Tested on: KM12;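 note: KM12 cell growth inhibition, read out with a cell viability assay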
Assay: cells
Format: functional, cell-based, Homo sapiens
Settings: Homo sapiens, KM12
Description: SANGER: Inhibition of human KM12 cell growth in a cell viability assay.

SMILES	IC50
Nc1cccc2c1CN(C1CCC(=O)NC1=O)C2=O (stereo not drawn) [LENALIDOMIDE]	> 5 µM

Tested on: RS4-11;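 note: growth inhibition of RS4-11 cells, read out by a cell viability assay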
Assay: cells
Format: functional, cell-based, Homo sapiens
Settings: Homo sapiens, RS4-11
Description: SANGER: Inhibition of human RS4-11 cell growth in a cell viability assay.

SMILES	IC50
Nc1cccc2c1CN(C1CCC(=O)NC1=O)C2=O (stereo not drawn) [LENALIDOMIDE]	> 5 µM

Tested on: NH-12;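 note: growth inhibition of NH-12 cells, read out with a cell viability assay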
Assay: cells
Format: functional, cell-based, Homo sapiens
Settings: Homo sapiens, NH-12
Description: SANGER: Inhibition of human NH-12 cell growth in a cell viability assay.

SMILES	IC50
Nc1cccc2c1CN(C1CCC(=O)NC1=O)C2=O (stereo not drawn) [LENALIDOMIDE]	> 5 µM

Tested on: HT-144
Assay: cells
Format: functional, cell-based, Homo sapiens
Settings: Homo sapiens, HT-144
Description: SANGER: Inhibition of human HT-144 cell growth in a cell viability assay.

SMILES	IC50
Nc1cccc2c1CN(C1CCC(=O)NC1=O)C2=O (stereo not drawn) [LENALIDOMIDE]	> 5 µM

Tested on: HT
Assay: cells
Format: functional, cell-based, Homo sapiens
Settings: Homo sapiens, HT
Description: SANGER: Inhibition of human HT cell growth in a cell viability assay.

SMILES	IC50
Nc1cccc2c1CN(C1CCC(=O)NC1=O)C2=O (stereo not drawn) [LENALIDOMIDE]	> 5 µM

Tested on: RXF 393;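 note: growth inhibition of human RXF 393 cells, read out with a cell viability assay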
Assay: cells
Format: functional, cell-based, Homo sapiens
Settings: Homo sapiens, RXF 393
Description: SANGER: Inhibition of human RXF393 cell growth in a cell viability assay.

SMILES	IC50
Nc1cccc2c1CN(C1CCC(=O)NC1=O)C2=O (stereo not drawn) [LENALIDOMIDE]	> 5 µM

Tested on: DMS-79;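 note: growth inhibition measured with a cell viability assay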
Assay: cells
Format: functional, cell-based, Homo sapiens
Settings: Homo sapiens, DMS-79
Description: SANGER: Inhibition of human DMS-79 cell growth in a cell viability assay.

SMILES	IC50
Nc1cccc2c1CN(C1CCC(=O)NC1=O)C2=O (stereo not drawn) [LENALIDOMIDE]	> 5 µM

Tested on: SJSA-1;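 note: growth inhibition of human SJSA-1 cells, read out through a cell viability measurement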
Assay: cells
Format: functional, cell-based, Homo sapiens
Settings: Homo sapiens, SJSA-1
Description: SANGER: Inhibition of human SJSA-1 cell growth in a cell viability assay.

SMILES	IC50
Nc1cccc2c1CN(C1CCC(=O)NC1=O)C2=O (stereo not drawn) [LENALIDOMIDE]	> 5 µM

Tested on: MZ1-PC;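 note: cell viability assay measuring growth inhibition of human MZ1-PC cells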
Assay: cells
Format: functional, cell-based, Homo sapiens
Settings: Homo sapiens, MZ1-PC
Description: SANGER: Inhibition of human MZ1-PC cell growth in a cell viability assay.

SMILES	IC50
Nc1cccc2c1CN(C1CCC(=O)NC1=O)C2=O (stereo not drawn) [LENALIDOMIDE]	> 5 µM

Tested on: HEL;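 note: growth inhibition of HEL cells, read out with a cell viability assay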
Assay: cells
Format: functional, cell-based, Homo sapiens
Settings: Homo sapiens, HEL
Description: SANGER: Inhibition of human HEL cell growth in a cell viability assay.

SMILES	IC50
Nc1cccc2c1CN(C1CCC(=O)NC1=O)C2=O (stereo not drawn) [LENALIDOMIDE]	> 5 µM

Tested on: NCI-H446;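 note: growth inhibition of NCI-H446 cells determined by a cell viability assay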
Assay: cells
Format: functional, cell-based, Homo sapiens
Settings: Homo sapiens, NCI-H446
Description: SANGER: Inhibition of human NCI-H446 cell growth in a cell viability assay.

SMILES	IC50
Nc1cccc2c1CN(C1CCC(=O)NC1=O)C2=O (stereo not drawn) [LENALIDOMIDE]	> 5 µM

Tested on: HuTu80;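 note: growth inhibition of HuTu80 human cells, determined with a cell viability readout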
Assay: cells
Format: functional, cell-based, Homo sapiens, HUTU-80
Settings: Homo sapiens, HuTu80
Description: SANGER: Inhibition of human HUTU-80 cell growth in a cell viability assay.

SMILES	IC50
Nc1cccc2c1CN(C1CCC(=O)NC1=O)C2=O (stereo not drawn) [LENALIDOMIDE]	> 5 µM

Tested on: D-247MG
Assay: cells
Format: functional, cell-based, Homo sapiens
Settings: Homo sapiens, D-247MG
Description: SANGER: Inhibition of human D-247MG cell growth in a cell viability assay.

SMILES	IC50
Nc1cccc2c1CN(C1CCC(=O)NC1=O)C2=O (stereo not drawn) [LENALIDOMIDE]	> 5 µM

Tested on: HCC2218;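 note: cell viability assay read-out, with IC50 given as the concentration that inhibits growth of the cell line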
Assay: cells
Format: functional, cell-based, Homo sapiens
Settings: Homo sapiens, HCC2218
Description: SANGER: Inhibition of human HCC2218 cell growth in a cell viability assay.

SMILES	IC50
Nc1cccc2c1CN(C1CCC(=O)NC1=O)C2=O (stereo not drawn) [LENALIDOMIDE]	> 5 µM

Tested on: SCH;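 note: growth inhibition of human SCH cells, read out in a cell viability assay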
Assay: cells
Format: functional, cell-based, Homo sapiens
Settings: Homo sapiens, SCH
Description: SANGER: Inhibition of human SCH cell growth in a cell viability assay.

SMILES	IC50
Nc1cccc2c1CN(C1CCC(=O)NC1=O)C2=O (stereo not drawn) [LENALIDOMIDE]	> 5 µM

Tested on: TE-10;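 note: growth inhibition of TE-10 cells, measured by a cell viability assay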
Assay: cells
Format: functional, cell-based, Homo sapiens
Settings: Homo sapiens, TE-10
Description: SANGER: Inhibition of human TE-10 cell growth in a cell viability assay.

SMILES	IC50
Nc1cccc2c1CN(C1CCC(=O)NC1=O)C2=O (stereo not drawn) [LENALIDOMIDE]	> 5 µM

Tested on: JAR;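 note: growth inhibition of human JAR cells determined with a cell viability assay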
Assay: cells
Format: functional, cell-based, Homo sapiens
Settings: Homo sapiens, JAR
Description: SANGER: Inhibition of human JAR cell growth in a cell viability assay.

SMILES	IC50
Nc1cccc2c1CN(C1CCC(=O)NC1=O)C2=O (stereo not drawn) [LENALIDOMIDE]	2.97 µM

Tested on: SNU-5;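 note: cell viability readout used to measure growth inhibition in human NCI-SNU-5 cells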
Assay: cells
Format: functional, cell-based, Homo sapiens
Settings: Homo sapiens, SNU-5
Description: SANGER: Inhibition of human NCI-SNU-5 cell growth in a cell viability assay.

SMILES	IC50
Nc1cccc2c1CN(C1CCC(=O)NC1=O)C2=O (stereo not drawn) [LENALIDOMIDE]	> 5 µM

Tested on: Ramos-2G6-4C10;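 note: growth inhibition of the cell line, measured by a cell viability read-out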
Assay: cells
Format: functional, cell-based, Homo sapiens
Settings: Homo sapiens, Ramos-2G6-4C10
Description: SANGER: Inhibition of human Ramos-2G6-4C10 cell growth in a cell viability assay.

SMILES	IC50
Nc1cccc2c1CN(C1CCC(=O)NC1=O)C2=O (stereo not drawn) [LENALIDOMIDE]	> 5 µM

Tested on: NB10;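 note: growth inhibition of NB10 cells, read out by a cell viability assay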
Assay: cells
Format: functional, cell-based, Homo sapiens
Settings: Homo sapiens, NB10
Description: SANGER: Inhibition of human NB10 cell growth in a cell viability assay.

SMILES	IC50
Nc1cccc2c1CN(C1CCC(=O)NC1=O)C2=O (stereo not drawn) [LENALIDOMIDE]	> 5 µM

Tested on: MZ7-mel;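 note: growth inhibition of human MZ7-mel cells, measured by a cell viability assay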
Assay: cells
Format: functional, cell-based, Homo sapiens
Settings: Homo sapiens, MZ7-mel
Description: SANGER: Inhibition of human MZ7-mel cell growth in a cell viability assay.

SMILES	IC50
Nc1cccc2c1CN(C1CCC(=O)NC1=O)C2=O (stereo not drawn) [LENALIDOMIDE]	> 5 µM

Tested on: SW684;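 note: growth inhibition of human SW684 cells, measured by a cell viability assay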
Assay: cells
Format: functional, cell-based, Homo sapiens
Settings: Homo sapiens, SW684
Description: SANGER: Inhibition of human SW684 cell growth in a cell viability assay.

SMILES	IC50
Nc1cccc2c1CN(C1CCC(=O)NC1=O)C2=O (stereo not drawn) [LENALIDOMIDE]	> 5 µM

Tested on: TE-6;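 note: growth inhibition of TE-6 cells, read out with a cell viability assay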
Assay: cells
Format: functional, cell-based, Homo sapiens
Settings: Homo sapiens, TE-6
Description: SANGER: Inhibition of human TE-6 cell growth in a cell viability assay.

SMILES	IC50
Nc1cccc2c1CN(C1CCC(=O)NC1=O)C2=O (stereo not drawn) [LENALIDOMIDE]	> 5 µM

Tested on: Becker;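 note: growth inhibition of Becker cells, read out with a cell viability assay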
Assay: cells
Format: functional, cell-based, Homo sapiens
Settings: Homo sapiens, Becker
Description: SANGER: Inhibition of human Becker cell growth in a cell viability assay.

SMILES	IC50
Nc1cccc2c1CN(C1CCC(=O)NC1=O)C2=O (stereo not drawn) [LENALIDOMIDE]	> 5 µM

Tested on: BT-474
Assay: cells
Format: functional, cell-based, Homo sapiens
Settings: Homo sapiens, BT-474
Description: SANGER: Inhibition of human BT-474 cell growth in a cell viability assay.

SMILES	IC50
Nc1cccc2c1CN(C1CCC(=O)NC1=O)C2=O (stereo not drawn) [LENALIDOMIDE]	> 5 µM

Tested on: DU-4475
Assay: cells
Format: functional, cell-based, Homo sapiens
Settings: Homo sapiens, DU-4475
Description: SANGER: Inhibition of human DU-4475 cell growth in a cell viability assay.

SMILES	IC50
Nc1cccc2c1CN(C1CCC(=O)NC1=O)C2=O (stereo not drawn) [LENALIDOMIDE]	> 5 µM

Tested on: NCI-H69;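 note: growth inhibition of the cell line, read out with a cell viability assay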
Assay: cells
Format: functional, cell-based, Homo sapiens
Settings: Homo sapiens, NCI-H69
Description: SANGER: Inhibition of human NCI-H69 cell growth in a cell viability assay.

SMILES	IC50
Nc1cccc2c1CN(C1CCC(=O)NC1=O)C2=O (stereo not drawn) [LENALIDOMIDE]	> 5 µM

Tested on: QIMR-WIL;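 note: growth inhibition of QIMR-WIL cells, read out with a cell viability assay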
Assay: cells
Format: functional, cell-based, Homo sapiens
Settings: Homo sapiens, QIMR-WIL
Description: SANGER: Inhibition of human QIMR-WIL cell growth in a cell viability assay.

SMILES	IC50
Nc1cccc2c1CN(C1CCC(=O)NC1=O)C2=O (stereo not drawn) [LENALIDOMIDE]	> 5 µM
